Measurements as given in ChEMBL document CHEMBL4613256, “Megastigmane Derivatives from the Cladodes of Opuntia humifusa and Their Nitric Oxide Inhibitory Activities in Macrophages” (J Nat Prod, 2020).
Active and inactive are the calls of the source. The calls are words filed in the database; no cut-off is given here.

Test system: RAW264.7
Assay: Cytotoxicity against mouse RAW264.7 cells assessed as reduction in cell viability at 6.25 to 100 uM after 24 hrs by EZ-Cytox cell viability assay
Type: cell-based
Conditions: raw264.7, 24 h

| Compound | Activity |
| --- | --- |
| C[C@@H](/C=C/[C@H]1C(CO)=CC(=O)CC1(C)C)O[C@@H]1O[C@H](CO)[C@@H](O)[C@H](O)[C@H]1O | Non-Toxic |
| CC(C)(O)c1ccc(CO[C@@H]2O[C@H](CO)[C@@H](O)[C@H](O)[C@H]2O)cc1 | Non-Toxic |
| CC1=CC(=O)CC(C)(C)[C@H]1CC[C@@H](O)CO | Non-Toxic |
| CC1=CC(=O)CC(C)(C)[C@@]1(O)/C=C/[C@H](CO)O[C@@H]1O[C@H](CO)[C@@H](O)[C@H](O)[C@H]1O | Non-Toxic |
| O=C1c2c(O)cc(O[C@@H]3O[C@H](CO)[C@@H](O)[C@H](O)[C@H]3O)cc2O[C@H](c2ccc(O)c(O)c2)[C@H]1O | Non-Toxic |
| CC1=CC(=O)CC(C)(C)[C@@H]1/C=C/[C@H](CO)O[C@@H]1O[C@H](CO)[C@@H](O)[C@H](O)[C@H]1O | Non-Toxic |
| COc1cc(/C=C/C(=O)O)cc(OC)c1O[C@@H]1O[C@H](CO)[C@@H](O)[C@H](O)[C@H]1O | Non-Toxic |
| COc1cc([C@H]2OC[C@H]3[C@@H]2CO[C@@H]3c2cc(OC)c(O[C@@H]3O[C@H](CO)[C@@H](O)[C@H](O)[C@H]3O)c(OC)c2)cc(OC)c1O | Non-Toxic |
| COc1cc(C(C)=O)ccc1O[C@@H]1O[C@H](CO)[C@@H](O)[C@H](O)[C@H]1O [ANDROSIN] | Non-Toxic |
| CC1=CC(=O)CC(C)(C)[C@H]1/C=C/[C@@H](CO)O[C@@H]1O[C@H](CO)[C@@H](O)[C@H](O)[C@H]1O | Non-Toxic |
| COc1cc(/C=C/CO)cc(OC)c1O[C@@H]1O[C@H](CO)[C@@H](O)[C@H](O)[C@H]1O [SYRINGIN] | Non-Toxic |
| O=C1C[C@@H](c2cc(O)cc(O)c2)Oc2cc(O)cc(O)c21 | Non-Toxic |
| COc1cc(-c2oc3cc(O)cc(O)c3c(=O)c2O[C@@H]2O[C@H](CO)[C@@H](O)[C@H](O)[C@H]2O)ccc1O | Non-Toxic |
| COc1cc(-c2oc3cc(O)cc(O)c3c(=O)c2O[C@@H]2O[C@H](CO[C@@H]3O[C@@H](C)[C@H](O)[C@@H](O)[C@H]3O)[C@@H](O)[C@H](O)[C@H]2O)ccc1O [NARCISSIN] | Non-Toxic |
| O=C1c2c(O)cc(O)cc2O[C@H](c2ccc(O)c(O)c2)[C@H]1O [(+)-TAXIFOLIN] | Non-Toxic |
| CC1=CC(=O)CC(C)(C)[C@@]1(O)/C=C/[C@H](C)O[C@@H]1O[C@H](CO)[C@@H](O)[C@H](O)[C@H]1O [6S,9S-ROSEOSIDE] | Non-Toxic |
| COc1cc(/C=C/C(=O)O[C@@H]2O[C@H](CO)[C@@H](O)[C@H](O)[C@H]2O)ccc1O | Non-Toxic |
| COc1cc(-c2oc3cc(O)cc(O)c3c(=O)c2O[C@@H]2O[C@H](CO)[C@@H](O)[C@H](O)[C@H]2O)ccc1O[C@@H]1O[C@H](CO)[C@@H](O)[C@H](O)[C@H]1O | Non-Toxic |
| CC1=CC(=O)CC(C)(C)[C@H]1CC[C@@H](CO)O[C@@H]1O[C@H](CO)[C@@H](O)[C@H](O)[C@H]1O | Non-Toxic |
| O=C1c2c(O)cc(O)cc2O[C@H](c2ccc(O)cc2)[C@H]1O [DIHYDROKAEMPFEROL] | Non-Toxic |
| CC1=CC(=O)CC(C)(C)[C@H]1CC[C@@H](O)CO[C@@H]1O[C@H](CO)[C@@H](O)[C@H](O)[C@H]1O | Non-Toxic |

Test system: RAW264.7
Assay: Inhibition of LPS-induced NO production in mouse RAW264.7 cells by Griess reagent based assay
Type: functional, cell-based
Conditions: not given

| IC50 [µM] | Compound | inhibition |
| --- | --- | --- |
| 43.8 | O=C1c2c(O)cc(O[C@@H]3O[C@H](CO)[C@@H](O)[C@H](O)[C@H]3O)cc2O[C@H](c2ccc(O)c(O)c2)[C@H]1O | Dose-dependent effect |
| 81.6 | O=C1c2c(O)cc(O)cc2O[C@H](c2ccc(O)c(O)c2)[C@H]1O [(+)-TAXIFOLIN] | Dose-dependent effect |

| Compound | IC50 [µM] | inhibition |
| --- | --- | --- |
| O=c1c(O)c(-c2ccc(O)c(O)c2)oc2cc(O)cc(O)c12 [QUERCETIN] | 22.7 | – |

Test system: RAW264.7
Assay: Antiinflammatory activity against mouse RAW264.7 cells assessed as reduction in LPS-induced iNOS protein expression at 25 to 100 uM after 24 hrs by Western blot analysis
Type: functional, cell-based
Conditions: not given

| Compound | Activity |
| --- | --- |
| O=C1c2c(O)cc(O)cc2O[C@H](c2ccc(O)c(O)c2)[C@H]1O [(+)-TAXIFOLIN] | Active |

Test system: RAW264.7
Assay: Antiinflammatory activity against mouse RAW264.7 cells assessed as reduction in LPS-induced iNOS protein expression at 10 to 50 uM after 24 hrs by Western blot analysis
Type: functional, cell-based
Conditions: not given

| Compound | Activity |
| --- | --- |
| O=C1c2c(O)cc(O[C@@H]3O[C@H](CO)[C@@H](O)[C@H](O)[C@H]3O)cc2O[C@H](c2ccc(O)c(O)c2)[C@H]1O | Active |
